Data from PubChem BioAssay (NCI).
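In this assay, cells in 96-well plates receive the compound at five concentrations for 48 hours. Endpoints are linearly interpolated between the surrounding concentrations. The concentration for 50% growth inhibition is given as GI50. Definition used: TGI = concentration required for complete inhibition of growth.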

What was measured:
Experiment in all cases: DTP human tumour cell line panel, 48 h
PC-3 prostate = system: PC-3 prostate
NCI-H522 lung = system: NCI-H522 lung
HOP-92 NSCLC = system: HOP-92 NSCLC
MCF7 breast = system: MCF7 breast
NCI/ADR-RES ovarian = system: NCI/ADR-RES ovarian
DU-145 prostate = system: DU-145 prostate
HS 578T breast = system: HS 578T breast
MDA-MB-435 = system: MDA-MB-435
T-47D breast = system: T-47D breast
MALME-3M melanoma = system: MALME-3M melanoma

| Compound | GI50 (PC-3 prostate) [µM] | TGI (PC-3 prostate) [µM] | GI50 (NCI-H522 lung) [µM] | TGI (NCI-H522 lung) [µM] | GI50 (HOP-92 NSCLC) [µM] | TGI (HOP-92 NSCLC) [µM] | GI50 (MCF7 breast) [µM] | TGI (MCF7 breast) [µM] | GI50 (NCI/ADR-RES ovarian) [µM] | TGI (NCI/ADR-RES ovarian) [µM] | GI50 (DU-145 prostate) [µM] | TGI (DU-145 prostate) [µM] | GI50 (HS 578T breast) [µM] | TGI (HS 578T breast) [µM] | GI50 (MDA-MB-435) [µM] | TGI (MDA-MB-435) [µM] | GI50 (T-47D breast) [µM] | TGI (T-47D breast) [µM] | GI50 (MALME-3M melanoma) [µM] | TGI (MALME-3M melanoma) [µM] |
| --- | --- | --- | --- | --- | --- | --- | --- | --- | --- | --- | --- | --- | --- | --- | --- | --- | --- | --- | --- | --- |
| O=c1c2cccc(F)c2sc2c(NCCCNCCO)nc3ccccc3c12 | 1.66 | 3.31 | 1.76 | 3.69 | 1.42 | 5.15 | 1.14 | 2.53 | 1.52 | 3.06 | 1.22 | 2.48 | 1.55 | 3.53 | 1.63 | 3 | 1.76 | 4.1 | 1.61 | 3.12 |
| Cc1occc1C(=S)Nc1ccc(Cl)c(C(=O)OCC(C)C)c1 |  | 38.7 |  | 29.2 |  | 34.1 |  | 33.3 |  | 28.6 |  | 39.8 |  | 62.6 |  | 32.8 |  | 34.3 |  | 36.2 |
| CC1NC(C(=O)O)Cc2cc(O)c(O)cc21 (stereo unspecified) |  | > 100 |  | > 100 |  | > 100 |  | > 100 |  | > 100 |  | > 100 |  | > 100 |  | > 100 |  | > 100 |  | > 100 |
| CC(=O)OC1CC2C(C)(C)CCC[C@]2(C)C2=C1C(O)=C(C(C)C)C(=O)C2=O (stereo partly specified) | 0.731 | 5.12 | 1.65 | 3.42 | 0.123 | 0.547 | 1.1 | 3.75 | 0.817 | 5.13 | 0.867 | 2.28 | 0.532 | > 20.4 | 0.335 | 1.72 | 0.739 | 4.98 | 0.341 | 1.59 |
| Nc1c(C(=O)c2ccc(C#CCN3CCOCC3)cc2)cnn1-c1ccc(F)cc1 | > 25 | > 25 | > 25 | > 25 | > 25 | > 25 | > 25 | > 25 | > 25 | > 25 | > 25 | > 25 | > 25 | > 25 | > 25 | > 25 | > 25 | > 25 | > 25 | > 25 |
| C[C@]12CCCN1CC1=NNC(=O)c3cc(F)cc4[nH]c2c1c34 | 20.7 | > 100 | 21.9 | 63.6 | 2.71 | 20.7 | 11.6 | > 100 | 20 | 71.8 | 32.6 | > 100 | 11.8 | 62.5 | 23.7 | 80.6 | 20.6 | 91.9 | 28.9 | 70.5 |
| NC(CP(=O)(O)O)C(=O)O (stereo unspecified) |  | > 100 |  | > 100 |  | > 100 |  | > 100 |  | > 100 |  | > 100 |  | > 100 |  | > 100 |  | > 100 |  | > 100 |
| COc1ccc(C2=NN(C=O)C(c3ccc(OS(=O)(=O)c4ccc(C)cc4)c(OC)c3)C2)cc1 (stereo unspecified) | 3.34 | > 100 | 4.22 | 90.4 | 1.88 | 31.1 | 3.7 | > 100 | 4.5 | > 100 | 74.9 | > 100 | 5.66 | 88.3 | 2.4 | 9.97 | 2.27 | > 100 | 7.09 | 49.3 |
| Cc1cncc(-c2nc(NCCc3c[nH]c4ccccc34)c3ncn(C(C)C)c3n2)c1 | 3.98 | 35.8 | 5.66 | 23.2 | 3.63 | 15.5 | 4.05 | 15.6 | 3.69 | 24 | 4.41 | 22.1 | 2.64 | 9.96 | 4.6 | 17 | 4.98 | 19.6 | 2.08 | 5.71 |
| O=C1CC(C(=O)O)Cc2c(Br)ccc(O)c21 (stereo unspecified) |  | > 100 |  | > 100 |  | > 100 |  | > 100 |  | > 100 |  | > 100 |  | > 100 |  | > 100 |  | > 100 |  | > 100 |
| CS(=O)(=O)O[C@H]1C(=O)N(c2cc3c4ccccc4ccc3c3ccccc23)[C@@H]1c1ccccn1 | 0.399 | > 100 | 0.573 | > 100 | 0.395 | 56.3 | 0.321 | > 100 | 0.523 | > 100 | 0.416 | > 100 | 0.428 | > 100 | 0.217 | 0.597 | 0.44 | > 100 |  |  |
| O=C1Nc2ccc(O)cc2/C1=C\c1ccncc1 | 26.9 | 77.8 | 11.5 | 38.2 | 31.2 | > 100 | 4.18 | 38.2 | 23.7 | 60.1 | 19.5 | 54.2 | 29.2 | 97.3 | 18.2 | 71 | 26.9 | > 100 |  |  |
